How the values were obtained:
MD2/TLR4 interaction = MD2/TLR4 interaction (Homo sapiens, UniProt O00206); assay: In vitro protein competition binding assay for MD2/TLR4 interaction; conditions: MD2 50 nM
Experimental: The recombinant TLR4 protein was diluted in PBS (2 μg/mL) and immobilized on a 96-well (100 ng/well) ELISA plate by incubation at 37° C. for 2 h. The wells were washed three times with PBS, followed by blocking with the addition of 300 μL 5% BSA in PBS at ambient temperature overnight. Then, the plate was rewashed three times with PBST before performed competition binding assay. The binding of MD2 (50 nM) to TLR4 was competed by adding various amounts (2-fold serial dilution from 50 μM to 3.05 nM) of C70PLY4, N35PLY4, or M50PLY4 peptide, and the residual binding was examined using anti-MD2 and anti-mouse-IgG-HRP antibodies diluted in 1% BSA as described in herein.

[1] = tested on: PMNs isolated from TLR4(−/−) mice C3H/HeJ; assay: LPS-induced PMN transendothelial migration, PMNs from TLR4(-/-) C3H/HeJ mice; assay type: cell-based; conditions: LPS 1 μg/ml, HUVEC monolayer Transwell
Experimental: To obtain mice neutrophils from TLR4-deficient [TLR4(−/−)] C3H/HeJ mice and wild type C3H/HeN mice, inflammation was induced by 0.1 ml of uric acid solution into the peritoneal cavity of the mouse. The uric acid solution (noncrystalline form) was prepared by mixing with saline (10% [wt/vol]) and sonicated for 10 min. Immediately before inoculation, the milky white precipitated uric acid solution was shaken vigorously. Peritoneal exudate cells were harvested 4, 18, or 24 h after injection by two lavages of the peritoneal cavity with 5 ml of cold phosphate-buffered saline (PBS; total volume, 10 ml). Uric acid-induced peritoneal cells (UAPMN) were washed by centrifugation at 200×g for 10 min at 4° C. […] The numbers and populations of peritoneal exudate cells were determined by staining the nuclei with Turk reagent and by cytospin centrifugation followed by May-Grünwald-Giemsa staining, respectively. […] Viability of the isolated neutrophils exceeded 95% as determined by trypan blue exclusion. […]
Neutrophils from human were isolated blood that was drawn in a syringe containing preservative-free heparin (20 U/ml final), and mixed with an equal volume of PBS containing 3% dextran and then incubated for 20 min at room temperature. […] The viability of the isolated neutrophils exceeded 95%, as determined by Trypan blue exclusion. […]

HUVEC = assay: Low shear stress experiment on HUVEC (morphology, F-actin immunofluorescence); assay type: cell-based, human; conditions: peptide pre-treatment 1 hour (100 mM), shear stress 4 dyn/cm^2 for 6 hours
Experimental: HUVEC was purchased by ScienCell Research Laboratories (CA, USA). The pellet was resuspended in M199 culture medium supplemented with penicillin/streptomycin and 20% fetal bovine serum (FBS), after which the cells were plated onto cell culture dishes. ECs were grown in Petri dishes for three days and then seeded onto glass slides pre-coated with rat tail type I collagen. Secondary cultures were used for the experiments within two days after reaching confluence (˜1-2×10^5 cells/cm^2).^12
HUVECs was mounted on a slide in a parallel-plate flow chamber, which was connected to a perfusion loop system (15). The system was kept in a constant-temperature, maintained at pH 7.4 by gassing with 5% CO2. The osmolality of the medium was kept in the range 285-295 mOsm/kg during perfusion. The flow channel width (w) was 1 cm and the channel height (h) was 0.025 cm. […]
After exposing to shear stress with or without peptide treatment, HUVECs were washed, fixed with 4% formaldehyde, and permeabilized by 1% Triton X-100 in PBS at 37° C. for 30 min. […] Intracytoplasmic F-actin immunofluorescence was detected by staining with phalloidin-fluorescein isothiocyanate (FITC) (1:1000 eBioscience) for 1 hr at room temperature, and cell nuclear stained with 4′,6-diamidino-2-phenylindole (DAPI) for 10 min at room temperature. Fluorescent cells were photographed by a fluorescence microscope with CCD (OLYMPUS).

Chain of MD2/TLR4 interaction (O00206 24-631): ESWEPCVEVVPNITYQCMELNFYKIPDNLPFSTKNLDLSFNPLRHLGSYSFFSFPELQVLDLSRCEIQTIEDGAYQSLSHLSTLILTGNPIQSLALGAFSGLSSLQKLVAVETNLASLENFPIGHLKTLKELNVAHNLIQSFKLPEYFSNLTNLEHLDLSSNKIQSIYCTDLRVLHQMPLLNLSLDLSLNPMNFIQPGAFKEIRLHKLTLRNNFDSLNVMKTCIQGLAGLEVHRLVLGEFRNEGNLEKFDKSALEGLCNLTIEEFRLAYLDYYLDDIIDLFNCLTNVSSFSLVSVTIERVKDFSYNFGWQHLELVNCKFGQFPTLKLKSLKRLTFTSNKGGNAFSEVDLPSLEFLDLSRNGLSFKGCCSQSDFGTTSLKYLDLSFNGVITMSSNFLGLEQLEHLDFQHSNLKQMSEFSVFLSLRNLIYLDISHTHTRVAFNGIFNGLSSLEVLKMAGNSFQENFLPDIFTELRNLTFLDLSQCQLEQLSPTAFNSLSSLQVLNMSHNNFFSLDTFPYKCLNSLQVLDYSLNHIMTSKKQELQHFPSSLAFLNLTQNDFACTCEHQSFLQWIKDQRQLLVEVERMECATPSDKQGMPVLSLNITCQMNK

Sequence: QDLTAHFTTSIPLKGNVRNLSVKIRECTGLAWEWWRTVYEKTDLPLVRKRTISIWGTTLYPQVEDKVEND [C70PLY4]
- concentration at which MD2 protein is completely competed away (MD2/TLR4 interaction; TLR4-coated well): 6.25 µM
- blocking capability for MD2 and TLR4 protein interaction (in words) (MD2/TLR4 interaction; peptide 50 μM to 3.05 nM): dose-dependent blocking capability
- PMNs migration, TLR4(−/−) mice model (FIG. 10) [1]: this phenomenon did not occur
- low shear stress induced cytoskeleton (F-actin) remodeling (HUVEC): almost block
- low shear stress induced morphological change (HUVEC): almost block

Reference: patent US10287328B2, “Treatment of diabetes, toll-like receptor 4 modulators and methods for using the same” (KeMyth Biotech Co., Ltd., priority 2016, dated 2019)
